Data on twelve compounds can be found in US9587035B2, “Assay for benzylpiperazine and metabolites” (Randox Laboratories Limited, priority 2012, dated 2017).

Molecules are shown by their SMILES. In brackets after ≈: the same amount, converted by molar mass. Where a name gives a salt, the structure may show the parent alone.

Data set [1] has as its system polyclonal antibodies (antiserum raised to Immunogen II), detecting agent Hapten 1-HRP. The data set is described as follows: Biochip competitive immunoassay (antibody characterisation, cross-reactivity). Format: binding, sheep. The note with it: for % Cross-reactivity: CR based on 100% for 1-benzylpiperazine, detecting agent derived from Hapten-1, % CR = IC50 1-benzylpiperazine/IC50 CR x 100; for IC50: detecting agent derived from Hapten-1, competitive assay format. Here is the method: Pre-immunisation blood samples were collected from 16-month-old female Suffolk sheep. The immunisation mixture was prepared by adding 2 mg of immunogen prepared in PBS at a ratio of 50% lmmunogen/PBS with 50% Freund's Complete adjuvant (Sigma, Product Number—F5881) and emulsifying the mixture to prepare the final product for immunisation. On Day 0, each sheep was immunized intramuscularly with 1 ml of the mixture described above, with 2-[4-(piperazin-1-yl-methyl)phenoxy]acetic acid conjugated to a carrier protein bovine thyroglobulin (BTG) (as in example 6 above). Subsequent boosts (a total of 20 boosts) were administered intramuscularly to each sheep every 30 days. Freund's complete adjuvant (Sigma, Product Number—F5881) was used for primary immunizations and Freund's incomplete adjuvant (Sigma product Number—F5506) was used for all subsequent injections. Routine bleeds were taken between boosts to monitor the antibody titre and sensitivity, using hapten 1 conjugated to Horseradish peroxidase in a competitive ELISA, testing cross reactivity to 1-Benzylpiperazine and 4-OH benzylpiperazine.
Once the antibody titres were assessed as meeting the required performance criteria i.e. there was no significant increase in antibody titre and a plateau had been reached in the % displacement profile, antibodies were then evaluated by competitive immunoassay. They were first immobilized on a biochip platform (9 mm×9 mm) (Randox Laboratories Ltd.), which was the vessel for the immunoreactions. The semi-automated bench top analyser Evidence Investigator was used (EV3602, Randox Laboratories Ltd., Crumlin, UK, patents-EP98307706, EP98307732, EP0902394, EP1227311, EP1434995 and EP1354623). The assay principle was based on competition for binding sites of the polyclonal antibodies between free antigen (1-Benzylpiperazine and other cross-reactants) and labelled conjugate (Hapten 1-HRP, prepared as in example 6). Assay dilutent (155 μl), calibrator/1-benzylpiperazine or potential cross-reactant (25 μl) followed by Hapten 1-HRP conjugate (120 μl) were added to the appropriate biochip. The biochips were then incubated for 30 minutes at 30° C. on a thermo-shaker set at 370 rpm. The biochips were then subjected to 2 quick wash cycles using the wash buffer provided, followed by 4×2 minute wash cycles. 250 μl of signal (1:1 luminol+peroxide, v/v) was then added to each biochip, and after 2 minutes the biochip carrier was imaged in the Evidence Investigator analyser. The system incorporates dedicated software to automatically process, report and archive the data generated (details can be found in FitzGerald, S. P. et al, Clin. Chem. 51(7); 1165-1176; 2005).
Calibration curves were generated using the Biochip based immunoassay as described above. The IC50 was calculated from the graphs by taking 50% of the signal from the zero calibrator and reading the corresponding value on the x-axis, equivalent to the concentration of unlabelled ligand which reduces specific binding of labelled ligand by 50%. Specificity was also tested against a range of related analytes (Table 1). Cross-reactivity was calculated according to the following formula: % CR=IC50, 1-benzylpiperazine/IC50, CR×100 where % CR is the percentage cross-reactivity, IC50, 1-benzylpiperazine is the concentration of 1-benzylpiperazine that causes 50% displacement of signal and IC50, CR is the concentration of 1-benzylpiperazine/metabolites/structurally-related molecules that causes 50% displacement of signal.

In another data set the test system is MDMA immunoassay. The note with it: commercial MDMA immunoassay; cited from earlier work.
For data set [2] the following is noted: Wistar rats, cited from earlier work; for % of the dose excreted as this molecule: BZP dosed; for detectability in urine post-dosing / time of peak urinary level post-dosing: urine.
The conditions of data set [3]: cited from earlier work.

As a reminder, the IC50 is the midpoint of a concentration-inhibition curve. A higher IC50 goes with weaker potency in that assay. Turning to `COc1ccccc1N1CCNCC1` [1-(2-Methoxyphenyl)piperazine diHCl, 1-(2-Methoxyphenyl)piperazine], in data set [1], the “% Cross-reactivity” value was determined as 3.2% and the IC50 came out at 0.0438 µg/mL.

Regarding `Oc1cccc(N2CCNCC2)c1` [1-(3-Hydroxyphenyl)piperazine], in data set [1], the “% Cross-reactivity” value is listed as 1.0% and the IC50 came to 0.14 µg/mL (≈ 0.785 µM).

Regarding `Cc1cccc(N2CCNCC2)c1` [1-(3-Methylphenyl)piperazine], in data set [1], the “% Cross-reactivity” value was 3.9% and the IC50 came out at 0.0359 µg/mL (≈ 0.204 µM).

`FC(F)(F)c1cccc(N2CCNCC2)c1` [1-(3-Trifluoromethylphenyl)piperazine]: in data set [1], the “% Cross-reactivity” value is on record as 1.9% and the IC50 is 0.0737 µg/mL (≈ 0.32 µM).

Take `Cc1ccc(N2CCNCC2)cc1` [1-(4-Methylphenyl)piperazine]: in data set [1], the “% Cross-reactivity” value was determined as 1.3% and the IC50 came to 0.1077 µg/mL (≈ 0.611 µM).

Take `c1ccc(CN2CCNCC2)cc1` [1-Benzylpiperazine, 1-benzylpiperazine]: in data set [1], the “% Cross-reactivity” value stood at 100.0% and the IC50 came to 0.0014 µg/mL (≈ 0.00794 µM). Also, in the data set with MDMA immunoassay, the “concentration needed for a positive result” value is 3,000,000 ng/mL. For the same compound, in data set [2], the “% of the dose excreted as this molecule” value is recorded as 6.7%, the “detectability in urine post-dosing” value is given as “undetectable at 48hrs” and the “time of peak urinary level post-dosing” value is “around 4 hrs”. Further, in data set [3] (in vivo), the elimination half life was 5 to 6 h and the “time at which elimination is complete” value is given as “around 44 hrs”. In addition, in data set [3] (oral dose of BZP hydrochloride), the “time to detection in plasma” value is reported as not above 30 min.

On to `c1ccc(N2CCNCC2)cc1` [1-Phenylpiperazine], for which, in data set [1], the “% Cross-reactivity” value is 3.4% and the IC50 was 0.0412 µg/mL (≈ 0.254 µM).

For `c1cc2c(cc1CN1CCNCC1)OCO2` [1-Piperonylpiperazine], in data set [1], the “% Cross-reactivity” value is given as 101.5% and the 50% inhibitory concentration (IC50) was found to be 0.0014 µg/mL (≈ 0.00636 µM).

In the case of `Oc1cccc(CN2CCNCC2)c1` [3-(Piperazin-1ylmethyl)phenol diHCl, 3-(Piperazin-1ylmethyl)phenol], in data set [1], the “% Cross-reactivity” value was determined as 123.7% and the 50% inhibitory concentration (IC50) was 0.0011 µg/mL. In data set [2], the “% of the dose excreted as this molecule” value was 2%, the “detectability in urine post-dosing” value is reported as “detectable up to 48hrs” and the “time of peak urinary level post-dosing” value is listed as “around 8 hrs”.

With `Oc1ccc(CN2CCNCC2)cc1` [4-OH Benzylpiperazine, 4-OH benzylpiperazine], in data set [1], the “% Cross-reactivity” value was 172.1% and the half-inhibitory concentration (IC50) stood at 0.0008 µg/mL (≈ 0.00416 µM). In addition, in data set [2], the “% of the dose excreted as this molecule” value is recorded as 25%, the “detectability in urine post-dosing” value is given as “detectable up to 48hrs” and the “time of peak urinary level post-dosing” value is given as “around 8 hrs”.

Regarding `Cc1cccc(CN2CCNCC2)c1` [N-(3-Methylbenzyl)piperazine diHCl, N-(3-Methylbenzyl)piperazine], in data set [1], the “% Cross-reactivity” value came to 52.9% and the IC50 worked out at 0.0026 µg/mL.

Turning to `Clc1cccc(N2CCNCC2)c1` [mCPP HCl, 1-(3-chlorophenyl)piperazine], in data set [1], the “% Cross-reactivity” value turned out to be 0.6% and the IC50 turned out to be 0.2333 µg/mL.
